Experimental data as given in patent US20230099067A1, “STABLE EQUIVALENT OF RESOLVIN E2” (NATIONAL UNIVERSITY CORPORATION HOKKAIDO UNIVERSITY, priority 2020, published 2023).

Legend:
[1] = test system: mouse acute inflammation model induced by intraperitoneally transplanting Propionibacterium acnes; assay: Anti-inflammatory property evaluation assay: neutrophil count in peritoneal exudate of the P. acnes-induced mouse acute inflammation model; type: in vivo, mouse (male BALB/c); conditions: for anti-inflammatory activity as compared with the RvE2 and o-BZ-RvE2 groups / number of neutrophils in peritoneal exudate as compared with P. acnes-inoculated control mice: 300 pg intraperitoneally 8 hours after P. acnes injection, FIG. 3; for number of neutrophils in peritoneal exudate as compared with P. acnes-inoculated control mice: n=3 or 4
Experimental: The strength of the anti-inflammatory action of each compound was evaluated by using a mouse acute inflammation model induced by intraperitoneally transplanting Propionibacterium acnes.
The mouse acute inflammation model was produced using male BALB/c mice (6 to 7 weeks, obtained from Japan SLC Inc.). First, Propionibacterium acnes (P. acnes; 500 μg per mouse) subjected to heat sterilization was intraperitoneally injected into a mouse to prepare an acute inflammation model mouse. Eight or twelve hours after the injection of Propionibacterium acnes, the test compound was intraperitoneally administered to an acute inflammation model mouse. Then, 24 hours after the injection of Propionibacterium acnes, a peritoneal exudate was collected and the number of neutrophils was counted.
Then, 24 hours after the injection of Propionibacterium acnes, a peritoneal exudate was collected and the number of neutrophils was counted.
12 hours after the injection of Propionibacterium acnes, 300 fg, 300 pg, or 300 ng of RvE2 or o-BZ-RvE2, or only a solvent was independently intraperitoneally administered to acute inflammation model mice (n=3 or 4). Then, 24 hours after the injection of Propionibacterium acnes, a peritoneal exudate was collected and the number of neutrophils was counted.
300 pg of RvE2, o-BZ-RvE2, 17-deoxy-o-BZ-RvE2, 5-deoxy-o-BZ-RvE2, or 5,17-dideoxy-o-BZ-RvE2, or only a solvent was intraperitoneally administered to acute inflammation model mice 8 hours after the injection of Propionibacterium acnes (n=3 or 4). Then, 24 hours after the injection of Propionibacterium acnes, a peritoneal exudate was collected and the number of neutrophils was counted.

[2] = Evaluation of metabolic stability with human liver microsomes (HPLC remaining rate); type: in vitro ADME; conditions: 37° C.; for temporal change in the remaining rate in the presence of human liver microsomes: 0.1 M PBS (pH 7.4), HPLC, n=3, FIG. 4; for metabolic stability / degradation by human liver microsomes (in words): Example 1, 0-6 hours, FIG. 2
Experimental: 60 μL was aliquoted from an ethanol solution (1 mg/1 mL) of the synthetic compound to be evaluated, and the solvent was removed. A 0.1 M PBS buffer (435 μL, pH 7.4), CH3CN (10 μL), an NADPH regeneration system A solution (25 μL), and an NADPH regeneration system B solution (5 μL) were added to each compound, and stirring was carried out with a vortex mixer. After incubating the obtained reaction solution at 37° C. for 5 minutes, human liver microsomes (Corning (registered trade name) UltraPool (registered trade name) HLM 150) (25 μL) were added thereto, and 80 μL of the solution was aliquoted every hour (after 0, 1, 2, 3, and 6 hours from the addition). Each of the aliquoted solutions was quenched by adding CH3CN (80 μL) and then centrifuged (10,000 rpm) for 3 minutes at room temperature. The supernatant was collected and analyzed by using HPLC (COSMOSIL 5C18-MS-II, 4.6 mm×250 mm, CH3CN/H2O/TFA=35/65/0.01, 1.0 mL/min, detection at 254 nm).
The metabolic stability of 17-deoxy-o-BZ-RvE2 and 5-deoxy-o-BZ-RvE2 with respect to human liver microsomes was investigated. Specifically, for RvE2, o-BZ-RvE2, 17-deoxy-o-BZ-RvE2, and 5-deoxy-o-BZ-RvE2, the temporal change in the remaining rate (%) was measured by HPLC in 0.1 M PBS (pH 7.4) in the presence of human liver microsomes at 37° C. (n=3).

[3] = background statement; cited from earlier work
[4] = background statement; cited from earlier work; remark: listed apart in the source
[5] = exudate collected 24 hours after injection

SMILES	anti-inflammatory activity as compared with the RvE2 and o-BZ-RvE2 groups ([1]; exudate at 24 hours)	number of neutrophils in peritoneal exudate as compared with P. acnes-inoculated control mice [1, 5]	temporal change in the remaining rate in the presence of human liver microsomes [2]	stability with respect to oxygen as compared with RvE2 [3]	metabolic stability [4]	metabolic stability / degradation by human liver microsomes (in words) [2]	infiltration of neutrophils into the abdominal cavity (number of neutrophils in peritoneal exudate) as compared with solvent alone ([1]; 300 pg intraperitoneally 12 hours after P. acnes injection, exudate collected 24 hours after injection, n=4, FIG. 1(a))	anti-inflammatory action as compared with RvE2 ([1]; 300 fg, 300 pg or 300 ng intraperitoneally 12 hours after P. acnes injection, exudate at 24 hours, FIGS. 1(a) and 1(b))
CCC/C=C/c1ccccc1C/C=C/CCCCC(=O)O [5,17-dideoxy-o-BZ-RvE2]	attenuated	significantly decreased	–	–	–	–	–	–
CC[C@@H](O)/C=C/c1ccccc1C/C=C/CCCCC(=O)O [5-deoxy-o-BZ-RvE2]	attenuated	significantly decreased	gradually decreased as compared with RvE2	–	–	–	–	–
CCC(O)C=CC=CCC1CC1CC=CC=CC(O)CCCC(=O)O (centres unmarked) [CP-RvE2]	–	–	–	improved stability with respect to oxygen	insufficient metabolic stability	–	–	–
CC[C@@H](O)/C=C/C=C\C/C=C\C/C=C\C=C\[C@@H](O)CCCC(=O)O [RvE2, (5S,6E,8Z,11Z,14Z,16E,18R)-5,18-dihydroxyicosa-6,8,11,14,16-pentaenoic acid, reference compound]	–	significantly decreased	decreased with the passage of time	–	–	easily degraded	–	–
CC[C@@H](O)/C=C/c1ccccc1C/C=C/[C@@H](O)CCCC(=O)O [o-BZ-RvE2]	–	significantly decreased	–	–	–	excellent in metabolic stability	significantly suppressed	excellent anti-inflammatory action as compared with RvE2
